Test results from patent US7067486B2, “Acetylcholinesterase-derived peptides and uses thereof” (priority 1999, dated 2006).
Marks after values point to notes of the source that are not given here. Where no end group is shown, it is not given here.

Legend:
FVB/N adult mice = test: Biochemical and physiological male fertility correlates after ARP injection; assay type: in vivo, mouse
Source text: Culture Analyses: Twenty-four hr liquid cultures served for cytochemical staining, in situ hybridization, and cell proliferation assay by 5-bromo-2′-deoxy-Uridine (BrdU) incorporation [Grisaru et al. (1999b) id ibid.]. Twenty-eight day liquid cultures were sampled every 6–8 days for viable cell counting (using trypan blue dye exclusion), cell phenotyping (CD34^+, CD33^+ and CD41^+ quantification using flow cytometry, with CD34-PE, CD33-FITC (Immunotech/Coulter, Hialeah, Fla.), CD41-FITC (Immunoquality Products, Groningen, Netherlands) and CD45-FITC monoclonal antibodies), and growth of progenitor colony (granulocyte-macrophage and megakaryocytic), using previously described techniques (Pick et al. (1998) id ibid.). Cytochemical Staining: Staining of AChE activity was essentially as detailed elsewhere [Grisaru et al. (1999b) id ibid], on non-fixed liquid cultures following 300×g centrifugation on collagen-coated cover slips placed on the bottom of the culture well, in the presence of 10^−5 M iso-OMPA (ISO) or BW284C51 (BW), selective inhibitors of BuChE and AChE, respectively [see also Keymer et al.(1999) Eur. J. Neurosci. 11, 1049–57]. Nuclear staining w with 4′,6-diamidino-2- phenylindole [DAPI, see e.g., Peterson et al. (1999) Genetics 152, 427–439]. Animals and Tissue Collection: Male FVB/N mice (2–6 months old) were sacrificed 24 hr following 4 successive days of a forced swim session as detailed [Kaufer et al. (1998) id ibid.], or a single injection of ARP (34 nmol/kg weight), or phosphate buffer (PB) for control. ARP, a 26 amino acid residue peptide synthesized according to the C-terminal sequence of human AChE-R [Grisaru et al. (1999b) id ibid.] was HPLC purified and mass-spectrometry analysed for purity. Control naïve mice and hAChE-R transgenics were sacrificed with no prior treatment. Blood samples were allowed to clot 1 hr at room temperature and overnight at 4° C., followed by centrifugation and serum collection. Testes and seminal vesicles were excised and weighed, fixed in 4% paraformaldehyde or Bouin's fixative for histological staining or kept at −70° C. for protein extraction. Sperm cells were collected from one cauda epididymis shredded in 1 ml saline. Evaluation of Serum Corticosterone Levels: concentrations were determined by radioimmunoassay.
Epididymal sperm motility was assessed by visually determining percent motile sperm. Sperm concentration was measured using the Makler chamber (company, city, state).
Detection of the AChE core protein and/or its variant C-terminal peptides was performed on 7 μm thick paraffin embedded testis sections with either anti-ASP (C-16; Santa Cruz Biotechnology, Santa Cruz, Calif.) or anti-ARP polyclonal antibodies [Sternfeld et al. (2000) id ibid.]. PCNA was detected using a dedicated staining kit (Zymed Laboratories, San-Francisco, Calif.); nuclear staining and counterstaining was with DAPI and hematoxylin, respectively (Sigma, St. Louis Mo.).
To determine the in vivo capacity of ARP to affect different biochemical and physiological male fertility properties, the effect of injection of ARP or chronic expression of AChE-R (AChE-R transgenic mice) on different parameters was examined.

CD34^+ cells [1] = test: Cell phenotyping of CD34+ liquid cultures by flow cytometry (CD34, CD33, CD15, CD41); assay type: cell-based, human; conditions: for MK (CD41^+) fold expansion / Myeloid (CD33^+) fold expansion: 2-week primary cultures of CD34+ cells from 1 to 3 individuals, ± SEM where noted
Source text: Cell Source: UCB was collected, following informed consent of the parents and with the approval of the Sourasky Medical Center Ethics Committee, as previously described [Grisaru et al. (1999a) Am. J. Obstet. Gynecol, 180, 1240–1243]. Following 1:1 (v/v) dilution in Iscove's modified Dulbecco medium (IMDM, Beit Haemek, Israel), mononuclear cells were separated using 3% gelatin (Difco, Detroit, Mich.) and Ficoll-Hypaque gradients (<1.077 g/ml; Pharmacia, Uppsala, Sweden) [Pick et al. (1998) Br. J. Haematol. 103, 639–50]. CD34^+ cells were enriched using CD34 immunoglobulin-coated magnetic beads (CD34 progenitor cell selection system, Dynal, Norway).CD34^+ cells analysis was performed by flow cytometry (Becton Dickinson Immunocytochemistry System Inc., San Jose, Calif.), using CD34-PE (Becton Dickinson Immunocytometry System, Inc.) and CD45-FITC (Dako, Glostrup, Denmark) monoclonal antibodies. […] Liquid Cultures: UCB CD34^+ cells were set for liquid cultures at a concentration of 10^5/mL in IMDM, containing 10% autologous plasma, 2 mM L-glutamine (Sigma Chemical Co., St Louis, Mo.), penicillin ([…]), streptomycin ([…]), amphotericin B (2×10^−5 M) (Sigma Chemical Co.), and heparin (20 IU/mL, Gibco, Grand Island, N.Y.), all in a fully humidified atmosphere at 37° C. and 5% CO2. The following elements were added where noted: • 1. […] Endothlial Growth factors: Epidermal growth factor (EGF 10 ng/ml, Sigma Chemical Co.), basic Fibroblast growth factor (bFGF 20 ng/ml, Sigma Chemical Co.) incubated in a serum free medium (SFM) for 48 hr. • 3. Stress mimicking conditions: Hydrocortisone sodium succinate (Abic Ltd., Netanya, Israel) at concentrations equivalent to normal, intermediate and stress serum cortisol levels (0.1, 0.6 and 1.2 μM, respectively (De Vroede et al., Arch. Des. […] Antisense oligonucleotides: 3′-terminal 2′-O-Methylated 15- and 20-mer oligodeoxynucleotides in the antisense (AS) orientation, targeted against the common sequence domain in human AChEmRNA and BuChE mRNA, as control, […], as detailed elsewhere [Grisaru et al. (1999b) Mol. Cell. Biol. 19, 788–95]. • 5. AChE C-terminal peptides: The following C-terminal peptides of the AChE synaptic (ASP, also denoted SEQ ID: No. 2) and readthrough (ARP, also denoted SEQ ID: No. 1) isoforms were synthesized using a 433A peptide synthesizer (PE Applied Biosystems, Inc., Norwalk, Conn.). • ASP: 1-[…]-40, also denoted as SEQ ID: No. 2. • ARP: 1-[…]-26, also denoted as SEQ ID: No. 1.
Culture Analyses: Twenty-four hr liquid cultures served for cytochemical staining, in situ hybridization, and cell proliferation assay by 5-bromo-2′-deoxy-Uridine (BrdU) incorporation [Grisaru et al. (1999b) id ibid.]. Twenty-eight day liquid cultures were sampled every 6–8 days for viable cell counting (using trypan blue dye exclusion), cell phenotyping (CD34^+, CD33^+ and CD41^+ quantification using flow cytometry, with CD34-PE, CD33-FITC (Immunotech/Coulter, Hialeah, Fla.), CD41-FITC (Immunoquality Products, Groningen, Netherlands) and CD45-FITC monoclonal antibodies), and growth of progenitor colony (granulocyte-macrophage and megakaryocytic), using previously described techniques (Pick et al. (1998) id ibid.). […] 11, 1049–57]. Nuclear staining w with 4′,6-diamidino-2- phenylindole [DAPI, see e.g., Peterson et al. (1999) Genetics 152, 427–439].

CD34^+ cells [2] = test: Viable cell expansion in CD34+ liquid cultures (trypan blue exclusion); assay type: cell-based, human; conditions: day 14; seeded at 50,000 cells/well; ARP 2 nM, cortisol 1.2 μM, ASP 2 nM, SCF 50 ng/ml, AS1 20 pM, PBAN 2 nM
Source text: Cell Source: UCB was collected, following informed consent of the parents and with the approval of the Sourasky Medical Center Ethics Committee, as previously described [Grisaru et al. (1999a) Am. J. Obstet. Gynecol, 180, 1240–1243]. Following 1:1 (v/v) dilution in Iscove's modified Dulbecco medium (IMDM, Beit Haemek, Israel), mononuclear cells were separated using 3% gelatin (Difco, Detroit, Mich.) and Ficoll-Hypaque gradients (<1.077 g/ml; Pharmacia, Uppsala, Sweden) [Pick et al. (1998) Br. J. Haematol. 103, 639–50]. CD34^+ cells were enriched using CD34 immunoglobulin-coated magnetic beads (CD34 progenitor cell selection system, Dynal, Norway).CD34^+ cells analysis was performed by flow cytometry (Becton Dickinson Immunocytochemistry System Inc., San Jose, Calif.), using CD34-PE (Becton Dickinson Immunocytometry System, Inc.) and CD45-FITC (Dako, Glostrup, Denmark) monoclonal antibodies. […] Liquid Cultures: UCB CD34^+ cells were set for liquid cultures at a concentration of 10^5/mL in IMDM, containing 10% autologous plasma, 2 mM L-glutamine (Sigma Chemical Co., St Louis, Mo.), penicillin ([…]), streptomycin ([…]), amphotericin B (2×10^−5 M) (Sigma Chemical Co.), and heparin (20 IU/mL, Gibco, Grand Island, N.Y.), all in a fully humidified atmosphere at 37° C. and 5% CO2. The following elements were added where noted: • 1. Hematopoietic growth factors: Interleukin 3 (IL3, 5 ng/mL, Immunex, Seattle, Wash.), interleukin 6 (IL6, 50 ng/mL, R&D Systems, Minneapolis, Minn.), TPO (1 ng/mL, R&D Systems), stem cell factor (SCF, 10 ng/mL, R&D Systems), FLT-3 ligand (FLT3, 50 ng/mL, R&D Systems), granulocyte-macrophage colony stimulating factor (GM-CSF, 50 ng/mL, Biogenesis Ltd, Bournemouth, UK) and combinations of the above, for 24 hr to 28 days (supplemented every 4 days). • 2. Endothlial Growth factors: Epidermal growth factor (EGF 10 ng/ml, Sigma Chemical Co.), basic Fibroblast growth factor (bFGF 20 ng/ml, Sigma Chemical Co.) incubated in a serum free medium (SFM) for 48 hr. • 3. […] AChE C-terminal peptides: The following C-terminal peptides of the AChE synaptic (ASP, also denoted SEQ ID: No. 2) and readthrough (ARP, also denoted SEQ ID: No. 1) isoforms were synthesized using a 433A peptide synthesizer (PE Applied Biosystems, Inc., Norwalk, Conn.). • ASP: 1-[…]-40, also denoted as SEQ ID: No. 2. • ARP: 1-[…]-26, also denoted as SEQ ID: No. 1. […]

[3] = 24-hr post i.p. injection of 34 nmol/Kg ARP, FVB/N adult male mice
[4] = day 14, seeded at 50,000 cells/well, ARP 2 nM, cortisol 1.2 μM, ASP 2 nM, SCF 50 ng/ml, AS1 20 pM, PBAN 2 nM

Substance	seminal gland wt. (FVB/N adult mice; [3]) [mg/gr weight]	sperm counts (FVB/N adult mice; [3]) [cells/epididimis × 10^−6]	sperm, motile (FVB/N adult mice; [3])	sperm cell motility (FVB/N adult mice; ARP injected mice)	sperm counts compared with untreated FVB/N mice (FVB/N adult mice; ARP-injected mice)	MK (CD41^+) fold expansion (CD34^+ cells [1]) [fold]	Myeloid (CD33^+) fold expansion (CD34^+ cells [1]) [fold]	CD33^+ (early myeloids) (CD34^+ cells [1]; [4]) [cells per culture × 10^−3]	CD33^+ and CD15^+ (total myeloids) (CD34^+ cells [1]; [4]) [cells per culture × 10^−3]	CD34^+ (early progenitors) (CD34^+ cells [1]; [4]) [cells per culture × 10^−3]	CD41^+ (megakaryocytes) (CD34^+ cells [1]; [4])	Total viable cells (CD34^+ cells [2]) [cells per culture × 10^−3]
GMQGPAGSGWEEGSGSPPGVTPLFSP [ARP]	10.79 ± 1.08	5.3 ± 1.2	5 ± 1.7 % of total sperm cells	significantly reduced motility	lower	–	–	–	–	–	–	–
SCF	–	–	–	–	–	0.30 ± 0.21	3.90	69.0	72.0	6.3	2.6^b cells per culture × 10^−3	118.0
TPO	–	–	–	–	–	3.93 ± 3.56	3.51 ± 2.23	–	–	–	–	–
